Source: patent US6914049B2, “IGF-binding protein-derived peptide or small molecule” (Bioexpertise, LLC, priority 2001, dated 2005)
Where no end group is shown, it is not given here.

How the values were obtained:
[1] = system: MA-16C mammary adenocarcinoma tumors; assay: MA-16C mammary adenocarcinoma tumor implants; format: in vivo, female C3H mice; conditions: DOX study
Method: Fragments of MA-16C mammary adenocarcinoma tumors were implanted subcutaneously into female C3H mice (8-11 animals per group). The animals were treated with vehicle alone, IGFBP-3 (4 mg/kg/day for 21 days by subcutaneous injection), doxorubicin (2 mg/kg on days 1 and 8 by intravenous injection), or IGFBP-3 plus doxorubicin. A separate study was performed where the animals were treated with vehicle alone, 5-fluorouracil (10 mg/kg on days 1-5 by intraperitoneal injection), or IGFBP-3 plus 5-fluorouracil. Tumor size was measured at day 18, and the mice were sacrificed at day 21, and the implanted tumors were removed for determination of caspase-3 activity (a marker of apoptosis-only performed for DOX groups).

HEK293 cells [2] = assay: Nuclear translocation of MBD-GFP32 after endocytosis inhibitors; format: cell-based, human; conditions: inhibitor 10 μg/ml one hour; 500 ng/ml MBD-GFP32, twenty minutes; FIG. 19
Method: HEK293 cells were pre-incubated with inhibitors nystatin (inhibitor of caveolin pathway) or chlorpromazine (inhibitor of clathrin pathway) for one hour at 10 μg/ml. […] Extracts were assayed by anti-GFP ELISA.

HEK 293 cells [3] = assay: Co-apoptotic activity of MBD peptides and paclitaxel, caspase-3; format: cell-based, human; conditions: normalized to MBD2 = 100 on a molar basis; peptide 50 ng/ml, 0.3 ng/ml paclitaxel, 8 hours
Method: Peptides (50 ng/ml) were added to 80% confluent HEK 293 cells grown in DMEM supplemented with 0.3 ng/ml paclitaxel concurrent with peptide. Caspase-3 activity was measured in cell extracts 8 hours post-addition.
(§1) Apoptotic activity is expressed in arbitrary caspase-3 units normalized to MBD2 on a molar basis (MBD2 activity was defined as 100 units (avg. of 3 experiments); “nd” indicates “not done”; “ps” indicates phosphoserine. Metal-binding is expressed as a percentage of loaded peptide bound to a Ni-NTA resin; approximately 1-1.5 mg of peptide were loaded on the column. Cell uptake was determined using genetic fusions to GFP as described in Example 9.

[4] = Metal-binding of peptides to Ni-NTA resin; conditions: percentage of loaded peptide bound to Ni-NTA resin; 1-1.5 mg loaded
Method: as §1

HEK293 cells [5] = assay: Caspase-3 apoptosis assay on nutritionally stressed HEK293 cells (Examples 1-2); format: cell-based, human
Method: Human embryonal kidney 293 (HEK293) cells were grown in Dulbecco's Modified Eagle Medium (D-MEM) supplemented with fetal calf serum at 2%, 4%, 6%, or 8%. When the cells reached 80-85% confluency (cell titer approximately 2.1×10^6 cells per plate), 5 μg of IGFBP-3 or buffer control was added to each plate. The cells were incubated at 37° C. overnight. The next day the medium was removed and the cells were rinsed with trypsin-EDTA (0.25% trypsin, 1 mM EDTA) plus 1× phosphate buffered saline. The cells were centrifuged and the supernatant was removed. ApoAlert caspase-3 assay kit from Clontech Inc (Palo Alto, Calif.) was used to measure apoptosis. The cells were resuspended in 50 μl of chilled cell lysis buffer and incubated on ice for 10 minutes. The resulting cell, lysates were centrifuged at 14000 rpm in a Beckman microcentrifuge for 3 minutes at 4 C. The supernatant was transferred to new tubes and 50 μl of 2× reaction buffer/DTT plus 5 μl of 1 mM caspase-3 substrate was added to each tube. After incubating at 37 C. for 1 hour in a water bath, the samples were read at 405 nm in a microplate reader.
Peptides derived from IGFBP-3 were tested for pro-apoptotic activity essentially as described in Example 1.
The peptides tested are described in Table 1 (peptides marked with an asterisk include a hexahistidine tag).

[6] = Binding of short peptides to Ni-His-Bind column, imidazole elution
Method: We further tested the ability of IGFBP-3-derived sub-domains and peptides to bind metal. As shown in Example 5, below, a defined fragment of IGFBP-3 generated in vivo can be captured on IMAC. Two short peptides were passed through a Ni-His-Bind column:
Both peptides bound specifically to the column. Peptide 1 eluted with 60 mM imidazole, whereas higher concentrations of imidazole (1M) were necessary to elute Peptide 2.

HEK293 cells [7] = assay: Nuclear translocation of biotinylated peptide/streptavidin-HRP conjugate; format: cell-based, human; conditions: approx. 90 Kd conjugate, 20 minutes; FIG. 24
Method: Biotinylated MBD peptides MBD9, MBD20 ([…] (SEQ ID NO: 37): the MBD core 14mer is underlined, and the caveolin consensus binding sequence is bolded) or MBD21 ([…] (SEQ ID NO: 38): the MBD core 14mer is underlined, and the caveolin consensus binding sequence is bolded) were each mixed with streptavidin-horseradish peroxidase conjugate (3-6× molar excess of MBD peptide) and added to HEK293 cells. After 20 minutes, nuclear and cytoplasmic extracts were prepared as described in Example 20 and assayed for peroxidase activity.

HEK293 cells [8] = assay: Co-apoptotic activity with paclitaxel in presence of plasma proteins; format: cell-based, human; conditions: 50 ng/ml, 0.3 ng/ml paclitaxel, eight hours
Method: Co-apoptotic activity of MBD peptides or IGFBP-3 with paclitaxel was tested in the presence or absence of two plasma proteins; fibronectin and fibrinogen. MBD peptides or IGFBP-3, (50 ng/ml), 0.3 ng/ml paclitaxel, and plasma proteins (200 ng/ml) were added to 80% confluent HEK293 cells grown in DMEM essentially as described in Example 8. Caspase-3 was measured after an eight hour incubation.
Apoptotic activity was calculated in arbitrary caspase-3 units normalized to MBD2 (MBD2 activity was defined as 100 units) Results are summarized in Table 4 (average of 3 experiments).

HEK 293 cells [9] = assay: IGF-independence of apoptosis stimulation, caspase-3; format: cell-based, human
Method: HEK 293 cells were cultured under stressed conditions (low serum or in the presence of paclitaxel) with and without IGFBP-3 (50 ng/ml) or MBD2 (50 ng/ml). Apoptosis was assayed using the caspase-3 assay as described in Example 1.

HEK 293 cells [10] = assay: Integrin dependence of pro-apoptotic activity, caspase-3; format: cell-based, human; conditions: with paclitaxel; FIG. 12A
Method: HEK 293 cells were cultured as described in Example 10, including paclitaxel. Cells were incubated with MDB2 either alone or in combination with an anti-adhesion protein antibody. Antibodies were against integrin associated protein (LAP), fibronectin (Fn), transferrin receptor (TfnR), alpha 5 integrin, alpha 6 integrin, alpha v integrin, beta 1 integrin, and beta 5 integrin. Caspase-3 activity was assayed as described in Example 1.

[11] = system: HEK 293 cells transfected with dominant negative inserts; assay: Co-apoptotic activity in cells with blocked signal transduction; format: cell-based, human; conditions: AktDN, PTEN, ILKdn, rafDN inserts; with paclitaxel; FIG. 15
Method: HEK 293 cells were transfected with pUSEamp, or pUSEamp carrying a Akt dominant negative (AktDN), PTEN, ILK dominant negative (ILKdn) or raf dominant negative (rafDN) insert (Upstate Biotechnologies). The cells were cultured as described in Example 10 (including paclitaxel), with or without MBD2.

MA16C cells = assay: Sensitization to low dose doxorubicin, caspase-3; format: cell-based; conditions: doxorubicin 75 ng/ml, FIG. 16A
Method: MA16C cells were cultured in the presence of MDB2 and a low dose of doxorubicin (75 ng/ml). Apoptosis was assayed using the caspase-3 assay as described in Example 1.

MDA-MB-231 cells = assay: Sensitization to low dose paclitaxel, NMP levels; format: cell-based; conditions: paclitaxel 100 ng/ml, 50 ng/ml peptide, FIG. 16B
Method: MDA-MB-231 cells were cultured in the presence of low dose paclitaxel (100 ng/ml) with and without MDB2 (50 ng/ml). Apoptosis was assayed by measuring NMP levels.

With COc1cccc2c1C(=O)c1c(O)c3c(c(O)c1C2=O)C[C@@](O)(C(=O)CO)C[C@@H]3O[C@H]1C[C@H](N)[C@H](O)[C@H](C)O1 [DOX, doxorubicin, reference compound] the “Tumor Weight” value ([1]; IGFBP-3 4 mg/kg/day sc 21 days, doxorubicin 2 mg/kg iv days 1 and 8) was 1966 + 677 mg, the “Lung Metastases” value ([1]; animals with metastases/animals) was 0/12 and the Caspase-3 ([1]; tumors removed at day 21) was 7.88 ± 6.27.

For CN(C)CCCN1c2ccccc2Sc2ccc(Cl)cc21 [chlorpromazine], the “effect on nuclear translocation of MBD peptides” value (HEK293 cells [2]) was “inhibit nuclear translocation of MBD peptides”.

In the case of C[C@@H]1[C@H](O)[C@@H](C)/C=C/C=C/CC/C=C/C=C/C=C/C=C/C(O[C@H]2O[C@H](C)[C@@H](O)[C@H](N)[C@@H]2O)CC2O[C@](O)(CC(O)C(O)CCC(O)CC(O)CC(O)CC(=O)O[C@H]1C)CC(O)C2C(=O)O (some centres unmarked) [nystatin], the “effect on nuclear translocation of MBD peptides” value (HEK293 cells [2]) is reported as “inhibit nuclear translocation of MBD peptides”.

With CRPSKGRKRGFC [MBD4] the “Apoptotic Activity” value (HEK 293 cells [3]) was 10-15 arbitrary caspase-3 units and the Metal-binding [4] was 92 percentage.

In the case of CRPSKGRKRGFCW [MBD12], the “Apoptotic Activity” value (HEK 293 cells [3]) is reported as 10-40 arbitrary caspase-3 units.

In the case of DKKGFYKKKQCRPSKGRKRGFCW [MBD1], the “pro-apoptotic activity” value (HEK293 cells [5]; FIG. 4A/4B) is reported as “dramatic lowering of pro-apoptotic activity”, the “imidazole concentration that elutes the peptide” value [6] is reported as 60 mM and the “Apoptotic Activity” value (HEK 293 cells [3]) is reported as 10-15 arbitrary caspase-3 units. The Metal-binding [4] was 22 percentage.

For GFYKKKQCRPSKGRKRGFCW [MBD5], the “Apoptotic Activity” value (HEK 293 cells [3]) was 10-15 arbitrary caspase-3 units and the Metal-binding [4] was 95 percentage.

In the case of KKEKDIMKKTIQCRPSKGRKRGFCWNGR [MBD10], the “Apoptotic Activity” value (HEK 293 cells [3]) is reported as 127 arbitrary caspase-3 units.

In the case of “KKGFYKKKQCRPSKGRKRGFCWAVDKYG (cysteine pairing not given here; also: biotinylated, position not given here) [MBD21, tested biotinylated with streptavidin-HRP]”, the “nuclear mobilization of streptavidin-HRP conjugate compared with MBD9” value (HEK293 cells [7]) is reported as “far more efficiently”.

With KKGFYKKKQCRPSKGRKRGFCWNGRK [MBD9] the “Apoptotic Activity” value (HEK 293 cells [3]) was 149 arbitrary caspase-3 units and the Metal-binding [4] was 45 percentage.

In the case of QCKMSLNGQRGECW [BP2n1s], the “Apoptotic Activity” value (HEK 293 cells [3]) is reported as <5 arbitrary caspase-3 units.

With QCKPSRGRKRGICW [BP5n1s] the “Apoptotic Activity” value (HEK 293 cells [3]) was <5 arbitrary caspase-3 units and the Metal-binding [4] was 28 percentage.

In the case of QCRPSEGGKRGFCW [MBD3], the “Apoptotic Activity” value (HEK 293 cells [3]) is reported as <5 arbitrary caspase-3 units and the Metal-binding [4] is reported as 100 percentage.

In the case of QCRPSKGRKRGFC [MBD13], the “Apoptotic Activity” value (HEK 293 cells [3]) is reported as 10-40 arbitrary caspase-3 units.

For QCRPSKGRKRGFCW [MBD2], the “pro-apoptotic activity relative to intact IGFBP-3 or a longer peptide” value (HEK293 cells [5]; on a weight basis, FIG. 4B) was 3-4 ×, the “binding to the column” value [6] was “binds metal more tightly” and the “imidazole concentration necessary to elute the peptide” value [6] was 1 M. The “Apoptotic Activity” value (HEK 293 cells [3]) was 100 arbitrary caspase-3 units, the Metal-binding [4] was 66 percentage and the “co-apoptotic activity with Fibrinogen” value (HEK293 cells [8]; Fibrinogen 200 ng/ml) was 67.5 arbitrary caspase-3 units. The “co-apoptotic activity with Fibronectin” value (HEK293 cells [8]; Fibronectin 200 ng/ml) was 98.3 arbitrary caspase-3 units, the “co-apoptotic activity, plasma protein none” value (HEK293 cells [8]; no plasma protein) was 100.0 arbitrary caspase-3 units and the “IGF dependence of pro-apoptotic activity” value (HEK 293 cells [9]; 0.3 ng/ml paclitaxel, alone or with Y60L-IGF-I, FIG. 11C) was “independent of the presence of IGF”. The “pro-apoptotic activity under stressed conditions” value (HEK 293 cells [9]; low serum or paclitaxel, 50 ng/ml, FIGS. 11A, 11B) was “nearly identical”, the “pro-apoptotic activity with anti-adhesion protein antibodies” value (HEK 293 cells [10]) was “inhibited by antibodies against integrins and integrin-associated proteins” and the “pro-apoptotic activity in cells with blocked pathways” value [11] was “inhibited in cells in which the PI3K/ILK kinase signal transduction pathway is blocked, but not in cells where the MAPK signal transduction pathway is blocked”. The “sensitization to doxorubicin” value (MA16C cells) was “sensitizes MA16C mammary adenocarcinoma cells to low doses of doxorubicin” and the “sensitization to paclitaxel” value (MDA-MB-231 cells) was “sensitizes MDA-MB-231 cells to low doses of paclitaxel”.

For “QCRPSKGRKRGFCWAVDKYG (cysteine pairing not given here; also: biotinylated, position not given here) [MBD20, tested biotinylated with streptavidin-HRP]”, the “nuclear mobilization of streptavidin-HRP conjugate compared with MBD9” value (HEK293 cells [7]) was “far more efficiently”.

For QCRPSKGRKRGFCWNGR [MBD7], the “Apoptotic Activity” value (HEK 293 cells [3]) was 89 arbitrary caspase-3 units and the Metal-binding [4] was 11 percentage.
